Data published in patent US20120252852A1 (SANOFI, priority 2011, published 2012).

Key:
[1] = Level of impurities in dependency on pH and storage time (1 mg/mL, autoclaved one time, stored at 40° C. and 75% RH, HPLC); format: physicochemical
Method: The appropriate pH value was adjusted by using sodium hydroxide solution (1 M sodium hydroxide) or diluted hydrochloric acid (1 M hydrochloric acid). The prepared vials were autoclaved one time and were stored at 40° C. and 75% RH (relative humidity).

[2] = test system: prothrombin fragments 1+2; settings: highest dose regimen; versus unfractionated heparin; cited from earlier work
factor Xa = biological target: T1, factor Xa (Homo sapiens, UniProt P00742); settings: patients with stable coronary artery disease taking usual comedication; cited from earlier work
T1 construct: host or cells: blood of patients (in vivo / ex vivo)

thrombosis = settings: rodent, canine and porcine models; cited from earlier work
[3] = biological target: factor Xa assembled in the prothrombinase complex (Factor Xa, Factor Va, calcium and phospholipid) (Homo sapiens, UniProt P00742); settings: cited from earlier work
[4] = Level of impurities in dependency on Otamixaban concentration and autoclaving (HPLC); format: physicochemical
Method: Liquid pharmaceutical compositions were prepared containing 1, 5 or 50 mg/mL
The appropriate pH value was adjusted by using sodium hydroxide solution (1 M sodium hydroxide) or diluted hydrochloric acid (1 M hydrochloric acid).

free factor Xa = free factor Xa (Homo sapiens, UniProt P00742); settings: cited from earlier work
Sequence of free factor Xa (P00742 235-488 limits assumed): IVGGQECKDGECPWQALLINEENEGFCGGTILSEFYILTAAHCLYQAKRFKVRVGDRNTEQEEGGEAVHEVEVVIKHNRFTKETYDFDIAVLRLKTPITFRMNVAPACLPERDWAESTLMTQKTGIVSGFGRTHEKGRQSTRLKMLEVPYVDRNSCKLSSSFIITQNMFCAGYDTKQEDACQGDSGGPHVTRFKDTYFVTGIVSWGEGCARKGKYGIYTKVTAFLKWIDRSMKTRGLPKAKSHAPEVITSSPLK
Sequence of free factor Xa (P00742 41-179 partner limits assumed): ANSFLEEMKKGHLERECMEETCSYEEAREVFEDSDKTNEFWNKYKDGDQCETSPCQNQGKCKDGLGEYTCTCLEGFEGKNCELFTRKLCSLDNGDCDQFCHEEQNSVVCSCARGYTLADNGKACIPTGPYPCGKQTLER

T1 sequence (P00742 235-488 limits assumed): as the sequence (P00742 235-488 limits assumed) above
T1 sequence (P00742 41-179 limits assumed): as the sequence (P00742 41-179 partner limits assumed) above
Sequence of factor Xa assembled in the prothrombinase complex (Factor Xa, Factor Va, calcium and phospholipid) (P00742 235-488 limits assumed): as the sequence (P00742 235-488 limits assumed) above
Sequence of factor Xa assembled in the prothrombinase complex (Factor Xa, Factor Va, calcium and phospholipid) (P00742 41-179 limits assumed): as the sequence (P00742 41-179 partner limits assumed) above
Sequence of factor Xa assembled in the prothrombinase complex (Factor Xa, Factor Va, calcium and phospholipid) (P12259 29-737 partner limits assumed): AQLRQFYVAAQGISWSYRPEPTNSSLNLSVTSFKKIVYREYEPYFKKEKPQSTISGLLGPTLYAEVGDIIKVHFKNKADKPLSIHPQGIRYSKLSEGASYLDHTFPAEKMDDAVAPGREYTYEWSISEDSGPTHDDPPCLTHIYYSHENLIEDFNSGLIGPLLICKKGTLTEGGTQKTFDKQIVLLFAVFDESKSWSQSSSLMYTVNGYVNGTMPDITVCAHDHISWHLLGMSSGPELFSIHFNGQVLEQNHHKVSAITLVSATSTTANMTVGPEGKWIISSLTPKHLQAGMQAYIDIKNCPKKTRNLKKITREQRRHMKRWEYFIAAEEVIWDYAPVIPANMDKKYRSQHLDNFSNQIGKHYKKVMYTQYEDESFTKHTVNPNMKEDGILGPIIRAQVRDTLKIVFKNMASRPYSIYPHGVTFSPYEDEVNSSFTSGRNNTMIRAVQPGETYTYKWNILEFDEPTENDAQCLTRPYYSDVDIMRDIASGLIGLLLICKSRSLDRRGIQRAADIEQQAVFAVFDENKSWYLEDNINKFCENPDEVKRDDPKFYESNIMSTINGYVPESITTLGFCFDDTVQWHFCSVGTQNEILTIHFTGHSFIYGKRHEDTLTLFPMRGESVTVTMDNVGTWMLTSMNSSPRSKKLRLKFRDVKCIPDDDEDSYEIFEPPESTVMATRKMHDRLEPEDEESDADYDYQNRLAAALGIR
Sequence of factor Xa assembled in the prothrombinase complex (Factor Xa, Factor Va, calcium and phospholipid) (P12259 1574-2224 partner limits assumed): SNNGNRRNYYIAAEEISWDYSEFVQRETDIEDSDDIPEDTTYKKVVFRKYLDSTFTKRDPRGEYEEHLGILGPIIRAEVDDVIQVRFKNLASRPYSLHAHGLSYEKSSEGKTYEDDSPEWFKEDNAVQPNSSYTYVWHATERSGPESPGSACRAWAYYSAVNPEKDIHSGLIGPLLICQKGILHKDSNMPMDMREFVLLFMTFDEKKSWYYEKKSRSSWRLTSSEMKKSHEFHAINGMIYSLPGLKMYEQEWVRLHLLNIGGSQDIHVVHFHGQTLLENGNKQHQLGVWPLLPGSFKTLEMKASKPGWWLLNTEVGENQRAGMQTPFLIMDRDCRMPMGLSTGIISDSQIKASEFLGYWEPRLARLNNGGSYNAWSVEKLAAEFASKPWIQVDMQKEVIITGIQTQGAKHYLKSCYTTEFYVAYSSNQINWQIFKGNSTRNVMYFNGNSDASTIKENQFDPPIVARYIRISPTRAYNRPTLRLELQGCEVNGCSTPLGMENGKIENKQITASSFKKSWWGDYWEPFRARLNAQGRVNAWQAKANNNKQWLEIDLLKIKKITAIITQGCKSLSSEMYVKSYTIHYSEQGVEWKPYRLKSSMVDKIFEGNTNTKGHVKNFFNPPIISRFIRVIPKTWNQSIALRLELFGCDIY

Increase of Formula II (carbamimidoyl-benzyl butyric acid) ([1]; pH 2.5, storage 6 months): 7.10%
Increase of Formula II (carbamimidoyl-benzyl butyric acid) ([1]; pH 3.0, storage 0 months): 0.18%
Increase of Formula II (carbamimidoyl-benzyl butyric acid) ([1]; pH 3.0, storage 1 month): 0.58%
Increase of Formula II (carbamimidoyl-benzyl butyric acid) ([1]; pH 3.0, storage 3 months): 1.39%
Increase of Formula II (carbamimidoyl-benzyl butyric acid) ([1]; pH 3.0, storage 6 months): 2.61%
Increase of Formula II (carbamimidoyl-benzyl butyric acid) ([1]; pH 3.2, storage 0 months): 0.15%
Increase of Formula III (carbamoyl-benzyl butyric acid methyl ester) ([1]; pH 3.2, storage 0 months): 0.76%
Increase of Formula II (carbamimidoyl-benzyl butyric acid) ([1]; pH 3.2, storage 1 month): 0.41%
Increase of Formula III (carbamoyl-benzyl butyric acid methyl ester) ([1]; pH 3.2, storage 1 month): 0.85%
Increase of Formula II (carbamimidoyl-benzyl butyric acid) ([1]; pH 3.2, storage 3 months): 0.93%
Increase of Formula III (carbamoyl-benzyl butyric acid methyl ester) ([1]; pH 3.2, storage 3 months): 1.00%
Increase of Formula II (carbamimidoyl-benzyl butyric acid) ([1]; pH 3.2, storage 6 months): 1.74%
Increase of Formula III (carbamoyl-benzyl butyric acid methyl ester) ([1]; pH 3.2, storage 6 months): 1.24%
Increase of Formula II (carbamimidoyl-benzyl butyric acid) ([1]; pH 3.5, storage 0 months): 0.12%
Increase of Formula II (carbamimidoyl-benzyl butyric acid) ([1]; pH 3.5, storage 1 month): 0.27%
Increase of Formula II (carbamimidoyl-benzyl butyric acid) ([1]; pH 3.5, storage 3 months): 0.55%
Increase of Formula II (carbamimidoyl-benzyl butyric acid) ([1]; pH 3.5, storage 6 months): 0.99%
Increase of Formula II (carbamimidoyl-benzyl butyric acid) ([1]; pH 3.7, storage 0 months): 0.11%
Increase of Formula II (carbamimidoyl-benzyl butyric acid) ([1]; pH 3.7, storage 1 month): 0.22%
Increase of Formula II (carbamimidoyl-benzyl butyric acid) ([1]; pH 3.7, storage 3 months): 0.42%
Increase of Formula II (carbamimidoyl-benzyl butyric acid) ([1]; pH 3.7, storage 6 months): 0.72%
Increase of Formula II (carbamimidoyl-benzyl butyric acid) ([1]; pH 4.0, storage 0 months): 0.12%
Increase of Formula II (carbamimidoyl-benzyl butyric acid) ([1]; pH 4.0, storage 1 month): 0.18%
Increase of Formula II (carbamimidoyl-benzyl butyric acid) ([1]; pH 4.0, storage 3 months): 0.32%
Increase of Formula II (carbamimidoyl-benzyl butyric acid) ([1]; pH 4.0, storage 6 months): 0.52%
Increase of Formula II (carbamimidoyl-benzyl butyric acid) ([1]; pH 4.2, storage 0 months): 0.13%
Increase of Formula II (carbamimidoyl-benzyl butyric acid) ([1]; pH 4.2, storage 1 month): 0.18%
Increase of Formula II (carbamimidoyl-benzyl butyric acid) ([1]; pH 4.2, storage 3 months): 0.27%
Increase of Formula II (carbamimidoyl-benzyl butyric acid) ([1]; pH 4.2, storage 6 months): 0.43%
Increase of Formula II (carbamimidoyl-benzyl butyric acid) ([1]; pH 4.5, storage 0 months): 0.15%
Increase of Formula II (carbamimidoyl-benzyl butyric acid) ([1]; pH 4.5, storage 1 month): 0.20%
Increase of Formula II (carbamimidoyl-benzyl butyric acid) ([1]; pH 4.5, storage 3 months): 0.30%
Increase of Formula II (carbamimidoyl-benzyl butyric acid) ([1]; pH 4.5, storage 6 months): 0.44%
Increase of Formula II (carbamimidoyl-benzyl butyric acid) ([1]; pH 4.7, storage 0 months): 0.20%
Increase of Formula II (carbamimidoyl-benzyl butyric acid) ([1]; pH 4.7, storage 1 month): 0.25%
Increase of Formula II (carbamimidoyl-benzyl butyric acid) ([1]; pH 4.7, storage 3 months): 0.36%
Increase of Formula II (carbamimidoyl-benzyl butyric acid) ([1]; pH 4.7, storage 6 months): 0.52%
Increase of Formula III (carbamoyl-benzyl butyric acid methyl ester) ([4]; pH 4.2-4.3, 5 mg/mL, vial 5 mL, 20 min 123° C., 0 autoclaving): 0.2%
Increase of Formula III (carbamoyl-benzyl butyric acid methyl ester) ([4]; pH 4.2-4.3, 5 mg/mL, vial 5 mL, 20 min 123° C., 1 autoclaving): 0.9%
Increase of Formula III (carbamoyl-benzyl butyric acid methyl ester) ([4]; pH 4.2-4.3, 5 mg/mL, vial 5 mL, 20 min 123° C., 2 autoclaving): 1.7%
Increase of Formula III (carbamoyl-benzyl butyric acid methyl ester) ([4]; pH 4.2-4.3, 5 mg/mL, vial 5 mL, 20 min 123° C., 3 autoclaving): 2.5%
Increase of Formula III (carbamoyl-benzyl butyric acid methyl ester) ([4]; pH 4.2, 1 mg/mL, vial 50 mL, 20 min […] C., 0 autoclaving): 0.4%
Increase of Formula III (carbamoyl-benzyl butyric acid methyl ester) ([4]; pH 4.2, 1 mg/mL, vial 50 mL, 20 min […] C., 1 autoclaving): 1.3%
Increase of Formula III (carbamoyl-benzyl butyric acid methyl ester) ([4]; pH 4.2, 1 mg/mL, vial 50 mL, 20 min […] C., 2 autoclaving): 2.3%
Increase of Formula III (carbamoyl-benzyl butyric acid methyl ester) ([4]; pH 4.2, 1 mg/mL, vial 50 mL, 25 min 125° C., 0 autoclaving): 0.4%
Increase of Formula III (carbamoyl-benzyl butyric acid methyl ester) ([4]; pH 4.2, 1 mg/mL, vial 50 mL, 25 min 125° C., 1 autoclaving): 1.3%
Increase of Formula III (carbamoyl-benzyl butyric acid methyl ester) ([4]; pH 4.2, 5 mg/mL, vial 5 mL, 20 min 123° C., 0 autoclaving): 0.3%
Increase of Formula III (carbamoyl-benzyl butyric acid methyl ester) ([4]; pH 4.2, 5 mg/mL, vial 5 mL, 20 min 123° C., 1 autoclaving): 1.0%
Increase of Formula III (carbamoyl-benzyl butyric acid methyl ester) ([4]; pH 4.2, 5 mg/mL, vial 5 mL, 20 min 123° C., 2 autoclaving): 1.8%
Increase of Formula III (carbamoyl-benzyl butyric acid methyl ester) ([4]; pH 4.2, 5 mg/mL, vial 5 mL, 20 min 123° C., 3 autoclaving): 2.6%
Increase of Formula III (carbamoyl-benzyl butyric acid methyl ester) ([4]; pH 4.2, 5 mg/mL, vial 50 mL, 25 min 125° C., 0 autoclaving): 0.4%
Increase of Formula III (carbamoyl-benzyl butyric acid methyl ester) ([4]; pH 4.2, 5 mg/mL, vial 50 mL, 25 min 125° C., 1 autoclaving): 1.4%
Increase of Formula III (carbamoyl-benzyl butyric acid methyl ester) ([4]; pH 4.2, 50 mg/mL, vial 5 mL, 20 min 123° C., 0 autoclaving): 0.3%
Increase of Formula III (carbamoyl-benzyl butyric acid methyl ester) ([4]; pH 4.2, 50 mg/mL, vial 5 mL, 20 min 123° C., 1 autoclaving): 1.1%
Increase of Formula III (carbamoyl-benzyl butyric acid methyl ester) ([4]; pH 4.2, 50 mg/mL, vial 5 mL, 20 min 123° C., 2 autoclaving): 1.9%
Increase of Formula III (carbamoyl-benzyl butyric acid methyl ester) ([4]; pH 4.2, 50 mg/mL, vial 5 mL, 20 min 123° C., 3 autoclaving): 2.7%
SMILES: COC(=O)[C@H](Cc1cccc(C(=N)N)c1)[C@@H](C)NC(=O)c1ccc(-c2cc[n+]([O-])cc2)cc1 (mixture of isomers) [Otamixaban, Methyl (2R,3R)-2-{3-[amino(imino)methyl]benzyl}-3-{[4-(1-oxidopyridin-4-yl)benzoyl]amino}butanoate]
Reduction of prothrombin fragments 1+2 [2]: reduced prothrombin fragments 1+2 significantly more than unfractionated heparin
Factor Xa inhibition in patients (factor Xa): dose-dependent, rapid direct factor Xa inhibition
Efficacy in models of thrombosis (thrombosis): highly efficacious
Inhibition of factor Xa assembled in the prothrombinase complex [3]: inhibited
Inhibition of free factor Xa (free factor Xa): inhibited
